Results taken from publication PMC8143339, “PK/PD Modeling of the PDE7 Inhibitor—GRMS-55 in a Mouse Model of Autoimmune Hepatitis” (Pharmaceutics, 2021).
Where two headings read alike, the source gives them in different places.

Columns and labels:
[1] = test system: PDE4B; test: in vitro PDE4B inhibition assay; format: biochemical; settings: ratio of IC50 values
[2] = Pharmacokinetic study after IP administration; format: in vivo, female BALB/c mice; settings: for half-life: ip
Experimental: Pharmacokinetics of GRMS-55 was evaluated in female BALB/c mice following intraperitoneal (IP) administration of this compound at doses of 50 and 100 mg·kg^−1. The investigated compound was dissolved in a vehicle composed of DMSO, PEG 400, and water for injection at a ratio of 25:25:50 (v/v/v). Animals were exsanguinated at 5, 15, 30, 60, 90, and 120 min following GRMS-55 administration. Blood samples were collected, allowed to clot for 30 min at room temperature, and centrifuged at 3000× g for 10 min. The serum was separated and stored at −20 °C until analysis.
To analyze GRMS-55 concentrations in the mouse serum, we used the previously developed HPLC method with UV detection. A detailed description of this method was published in a supplementary material of our previous publication. Briefly, 10 μL of 4-(8-((furan-2-ylmethyl)amino)-1,3-dimethyl-2,6-dioxo-1,2,3,6-tetrahydro-7H-purin-7-yl)-N′-(2-hydroxybenzylidene)butanehydrazide solution as internal standard (IS) was added to tubes containing 100 μL of the analyzed serum. The samples were mixed with 20 μL of 1 M hydrochloric acid solution, subjected to extraction with 1 mL of dichloromethane, and centrifuged at 10,000× g for 8 min. The organic layers were transferred to new tubes and evaporated with nitrogen at 37 °C. Dry residues were then dissolved in 100 μL of mobile phase and transferred to glass vial inserts for HPLC analysis (LaChrom Elite, Merck-Hitachi, Darmstadt, Germany). The separation was achieved on a LiChrospher 100 RP-18 (250 × 4 mm) column (particle size of 5 μm) protected with a LiChroCART guard column (Merck, Darmstadt, Germany) using the mobile phase composed of 20 mM solution of KH2PO4 (pH = 4.5) and acetonitrile at a ratio of 45:55 (v/v) pumped at a flow rate of 1 mL min^−1 at ambient temperature. The analytical wavelength was set to 209 nm. In these conditions, the retention time of GRMS-55 was 9.2 min and for IS it was 5.3 min. The analytical method was validated according to FDA Bioanalytical Method Validation, Guidance for Industry. Specificity of the method was estimated by analyzing six different independent samples of the blank serum. […] The calibration curve was constructed by plotting the ratios of the peak area of the studied compound to IS vs. concentrations of GRMS-55 and it was linear in the tested concentration range, i.e., 0.050–20 mg·L^−1. Within runs and between runs, precision and accuracy met the acceptance criteria, i.e., they were less than 15% expressed as coefficients of variation % (CVs%) or ±15% of the nominal concentrations, respectively, for all quality control levels. Recoveries of the analyzed compound and IS assessed by comparing the peak areas of extracted samples with corresponding extracts of blanks spiked with the analyte post-extraction ranged from 94% to 98%. The lower limit of quantification was 0.05 mg·L^−1. GRMS-55 in serum samples was stable at room temperature for at least 12 h and at –20 °C for a period of 12 months. The stock solutions were stable for over one month at 4 °C.
Initially, non-compartmental analysis of the concentration–time data of GRMS-55 was performed. Subsequently, pharmacokinetic modeling was conducted. Different compartmental models with linear and non-linear elimination were tested, and the final pharmacokinetic model with the best goodness-of-fit criteria was chosen. Several measures of goodness-of-fit were evaluated, i.e., value of the objective function, Akaike Information Criterion, Bayesian Information Criterion, visual inspection of fitting, and a precision of parameter estimates expressed as CVs%. Pharmacokinetic model parameters were estimated using the ADAPT 5 software (BMSR, Los Angeles, CA, USA) based on the weighted least squares algorithm. […]

[3] = Assessment of emetogenicity: α2-adrenoceptor agonist-induced anesthesia (xylazine/ketamine); format: in vivo, male CD-1 mice; settings: doses up to 100 mg/kg IP
Experimental: Male CD-1 mice were anesthetized with xylazine (10 mg·kg^−1) and ketamine (80 mg·kg^−1) in saline for injection-administered IP. Fifteen minutes later, the animals were IP-administered with GRMS-55 at doses of 50 or 100 mg·kg^−1, rolipram at a dose of 10 mg·kg^−1, or the corresponding volume of vehicle and subsequently placed in a dorsal recumbency position. The return of the righting reflex (i.e., when the animal turned itself spontaneously to a prone position) was used as an endpoint to measure the duration of anesthesia. In this test, shortening of the sleeping time is a behavioral correlate of emesis.

[4] = test system: PDE4B; settings: reported in previous publication; read-out: IC50 for PDE4B inhibition; cited from earlier work
[5] = test system: PDE7A; settings: reported in previous publication; read-out: IC50 for PDE7A inhibition; cited from earlier work
[6] = test system: TNF-α production; parameters: method as in PMID 31899535; settings: rat lipopolysaccharide-induced endotoxemia, PK/PD model; cited from earlier work

## Cn1c(=O)c2c(nc(NCCc3ccccc3)n2CCCC(=O)NN=Cc2ccccc2O)n(C)c1=O [GRMS-55, 4-(1,3-dimethyl-2,6-dioxo-8-(phenethylamino)-1,2,3,6-tetrahydro-7H-purin-7-yl)-N′-(2-hydroxybenzylidene)butanehydrazide]
[1]
  times weaker inhibitor of PDE4B than rolipram: 24.5
[2]; IP 50 or 100 mg/kg, one-compartment model
  ka, absorption rate constant: 1.49 h⁻¹
[2]; female, BALB/c, mouse, serum, mice, IP, read-out: terminal half-life
  half-life: ~30 min
[2]; female, BALB/c, mouse, serum, non-compartmental approach, IP, read-out: serum terminal half-life (converted)
  half-life: ~30 min
[2]; female, BALB/c, mouse, serum, read-out: absorption half-life (ln2/ka)
  half-life: 27.9 min
[2]; female, BALB/c, mouse, serum, read-out: elimination half-life (ln2/ke)
  half-life: 9.1 min
[2]; female, BALB/c, mouse, serum, IP 50 or 100 mg/kg, one-compartment model, read-out: Vd/F, apparent volume of distribution
  Vd/F: 1.81 L/kg
[2]; female, BALB/c, mouse, serum, IP 50 or 100 mg/kg, one-compartment model, read-out: ke, elimination rate constant (converted)
  k el: 0.00127 s⁻¹
[3]
  effect on sleeping time: did not affect
[4]
  IC50: 26.9 µM
[5]
  IC50: 7.3 µM
[6]
  IC50, suppression of TNF-α production: 1.06 µg/mL
